SMILES strings stand for the structures. pEC50: −log10 of the molar value.

For one assay, the target named is T1, human ALX receptor (Homo sapiens, UniProt P25090).
T1 construct: expressed in transfected cells; host or cells: HEK293 (HEK293-hALXR-Gα16)
T1 sequence (P25090 1-351): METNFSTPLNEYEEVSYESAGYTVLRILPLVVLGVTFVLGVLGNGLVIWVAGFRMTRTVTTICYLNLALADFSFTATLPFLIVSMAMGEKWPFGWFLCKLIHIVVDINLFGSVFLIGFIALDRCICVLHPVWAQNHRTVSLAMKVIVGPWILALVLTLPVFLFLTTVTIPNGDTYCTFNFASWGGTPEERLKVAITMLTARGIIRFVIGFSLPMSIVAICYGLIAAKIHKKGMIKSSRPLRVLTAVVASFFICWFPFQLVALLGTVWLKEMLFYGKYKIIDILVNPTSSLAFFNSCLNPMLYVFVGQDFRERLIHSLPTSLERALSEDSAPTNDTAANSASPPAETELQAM
Description: Intracellular calcium measurements (FLIPR), agonistic activity in HEK293-hALXR-Gα16 cells. The format is cell-based. The settings on record: Fluo-4 calcium FLIPR, normalized to WKYMVm 10 nM. In short, it runs like this: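 HEK293 cells expressing hALXR and Gα16 were loaded with 1 μM Fluo-4 AM and 20 mM HEPES for 60 min at 37°C, then exposed to serially diluted compound. FLIPR fluorescence was read at ex 488/em 540 nm. Baseline-subtracted peak responses were normalized to 10 nM WKYMVm.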
A general note: Calcium flux is commonly read through the fluorescence of an indicator in the cells.

In the next assay the target is T2, human FPRL2 (Homo sapiens, UniProt P25089).
T2 construct: expressed in transfected cells; host or cells: HEK293 (HEK293-hFPRL2-Gα16)
T2 sequence (P25089 1-353): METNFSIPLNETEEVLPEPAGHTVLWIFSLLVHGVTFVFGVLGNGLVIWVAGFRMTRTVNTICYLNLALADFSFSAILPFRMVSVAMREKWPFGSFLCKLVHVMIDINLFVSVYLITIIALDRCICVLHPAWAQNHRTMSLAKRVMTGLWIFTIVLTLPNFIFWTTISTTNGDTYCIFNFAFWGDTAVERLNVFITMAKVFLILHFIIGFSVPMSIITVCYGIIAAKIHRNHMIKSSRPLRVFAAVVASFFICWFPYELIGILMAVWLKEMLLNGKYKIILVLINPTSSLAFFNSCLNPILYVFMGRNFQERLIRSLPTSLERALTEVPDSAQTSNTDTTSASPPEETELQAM
The assay can be described thus: Intracellular calcium measurements (FLIPR), agonistic activity in HEK293-hFPRL2-Gα16 cells. The following applies: Fluo-4 calcium FLIPR, normalized to GLY14-Humanin 100 nM. The class given is cell-based. In short, it runs like this:
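Peak values after baseline subtraction are expressed relative to 100 nM Gly14-Humanin; compounds diluted in assay buffer from 10 mM DMSO stocks.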

`O=C(NCCCCN1CCCC1)[C@H]1[C@H](C(=O)Nc2ncc(Cl)s2)[C@@H]2C=C[C@H]1C21CC1` (racemic) [Example 129, (5R*)—N^5-(5-Chloro-thiazol-2-yl)-(6R*)—N^6-(4-pyrrolidin-1-yl-butyl)-(4S*,7R*)-[4,7-ethenylene-spiro[2.4]heptane]-5,6-dicarboxamide]: the negative-log EC50 (pEC50) (as a rule, the negative decadic logarithm of the EC50, by convention in mol/L) is 6.92 on human ALX receptor and 5.92 on human FPRL2.
As to `N#Cc1cnc(NC(=O)[C@H]2[C@H](C(=O)NCCCCN3CCCC3)[C@H]3C=C[C@@H]2C32CC2)s1` (racemic) [Example 130, (5R*)—N^5-(5-Cyano-thiazol-2-yl)-(6R*)—N^6-(4-pyrrolidin-1-yl-butyl)-(4S*,7R*)-[4,7-ethenylene-spiro[2.4]heptane]-5,6-dicarboxamide], the results for the pEC50 at human ALX receptor and at human FPRL2 were 6.78 and 5.20, respectively.
Taken in the same sequence, the figures for `O=C(NCCCCN1CCCC1)[C@H]1[C@H](C(=O)NCc2ccco2)[C@@H]2C=C[C@H]1C21CC1` (racemic) [Example 131, (5R*)—N^5-(Furan-2-yl-methyl)-(6R*)—N^6-(4-pyrrolidin-1-yl-butyl)-(4S*,7R*)-[4,7-ethenylene-spiro[2.4]heptane]-5,6-dicarboxamide] were 6.76 and 6.45.
Regarding `O=C(NCCCCN1CCCC1)[C@H]1[C@H](C(=O)Nc2ccc(OC(F)(F)F)cc2)[C@@H]2C=C[C@H]1C21CC1` (racemic) [Example 133, (5R*)—N^5-(4-Trifluoromethoxyphenyl)-(6R*)—N^6-(4-pyrrolidin-1-yl-butyl)-(4S*,7R*)-[4,7-ethenylene-spiro[2.4]heptane]-5,6-dicarboxamide], the results for the negative logarithm of the EC50 (pEC50) on human ALX receptor and at human FPRL2 were 6.58 and 6.91, respectively.
Taken in the same sequence, the figures for `O=C(NCCCCN1CCCC1)[C@H]1[C@H](C(=O)NCCOc2ccccc2)[C@@H]2C=C[C@H]1C21CC1` (racemic) [Example 134, (5R*)—N^5-(2-Phenoxy-ethyl)-(6R*)—N^6-(4-pyrrolidin-1-yl-butyl)-(4S*,7R*)-[4,7-ethenylene-spiro[2.4]heptane]-5,6-dicarboxamide] were 6.50 and 6.21.
`CC(C)CCNC(=O)[C@H]1[C@H](C(=O)NCCCCN2CCCC2)[C@H]2C=C[C@@H]1C21CC1` (racemic) [Example 135, (5R*)—N^5-(3-Methyl-butyl)-(6R*)—N^6-(4-pyrrolidin-1-yl-butyl)-(4S*,7R*)-[4,7-ethenylene-spiro[2.4]heptane]-5,6-dicarboxamide]: the pEC50 is 6.45 at human ALX receptor and 6.65 on human FPRL2.
Taken in the same sequence, the figures for `CCCCNC(=O)[C@H]1[C@H](C(=O)NCCCCN2CCCC2)[C@H]2C=C[C@@H]1C21CC1` (racemic) [Example 136, (5R*)—N^5-Butyl-(6R*)—N^6-(4-pyrrolidin-1-yl-butyl)-(4S*,7R*)-[4,7-ethenylene-spiro[2.4]heptane]-5,6-dicarboxamide] were 6.44 and 5.93.
Taken in the same sequence, the figures for `Cc1ccc(CNC(=O)[C@H]2[C@H](C(=O)NCCCCN3CCCC3)[C@H]3C=C[C@@H]2C32CC2)o1` (racemic) [Example 137, (5R*)—N^5-(5-Methyl-furan-2-yl-methyl)-(6R*)—N^6-(4-pyrrolidin-1-yl-butyl)-(4S*,7R*)-[4,7-ethenylene-spiro[2.4]heptane]-5,6-dicarboxamide] were 6.25 and 6.72.
In the same order, the values of `Cc1nc2cc(NC(=O)[C@H]3[C@H](C(=O)NCCCCN4CCCC4)[C@H]4C=C[C@@H]3C43CC3)ccc2s1` (racemic) [Example 138, (5R*)—N^5-(2-Methyl-benzothiazol-5-yl)-(6R*)—N^6-(4-pyrrolidin-1-yl-butyl)-(4S*,7R*)-[4,7-ethenylene-spiro[2.4]heptane]-5,6-dicarboxamide] are 6.24 and 6.48.
For the molecule `O=C(NCCCCN1CCCC1)[C@H]1[C@H](C(=O)NCCc2ccccc2)[C@@H]2C=C[C@H]1C21CC1` (racemic) [Example 139, (5R*)—N^5-(2-Phenyl-ethyl)-(6R*)—N^6-(4-pyrrolidin-1-yl-butyl)-(4S*,7R*)-[4,7-ethenylene-spiro[2.4]heptane]-5,6-dicarboxamide], the pEC50 was 6.14 at human ALX receptor and 6.82 on human FPRL2.
Taken in the same sequence, the figures for `CC(=O)CCCNC(=O)[C@H]1[C@H](C(=O)NCCCCN2CCCC2)[C@H]2C=C[C@@H]1C21CC1` (racemic) [Example 140, (5R*)—N^5-(4-oxo-pentyl)-(6R*)—N^6-(4-pyrrolidin-1-yl-butyl)-(4S*,7R*)-[4,7-ethenylene-spiro[2.4]heptane]-5,6-dicarboxamide] were 6.13 and 5.88.
Taken in the same sequence, the figures for `O=C(NCCCCN1CCCC1)[C@H]1[C@H](C(=O)Nc2cnc(Cl)nc2)[C@@H]2C=C[C@H]1C21CC1` (racemic) [Example 142, (5R*)—N^5-(2-Chloro-pyrimidin-5-yl)-(6R*)—N^6-(4-pyrrolidin-1-yl-butyl)-(4S*,7R*)-[4,7-ethenylene-spiro[2.4]heptane]-5,6-dicarboxamide] were 5.88 and 6.74.
In the same order, the values of `O=C(NCCCCN1CCCC1)[C@H]1[C@H](C(=O)NCc2cccc(Br)c2)[C@@H]2C=C[C@H]1C21CC1` (racemic) [Example 143, (5R*)—N^5-(3-Bromophenyl-methyl)-(6R*)—N^6-(4-pyrrolidin-1-yl-butyl)-(4S*,7R*)-[4,7-ethenylene-spiro[2.4]heptane]-5,6-dicarboxamide] are 5.69 and 7.03.
As to `O=C(NCCCCN1CCCC1)[C@H]1[C@H](C(=O)Nc2nc3ccccc3s2)[C@@H]2C=C[C@H]1C21CC1` (racemic) [Example 144, (5R*)—N^5-(Benzothiazol-2-yl)-(6R*)—N^6-(4-pyrrolidin-1-yl-butyl)-(4S*,7R*)-[4,7-ethenylene-spiro[2.4]heptane]-5,6-dicarboxamide], the pEC50 on human ALX receptor is 5.64; on human FPRL2 it was 6.49.
Taken in the same sequence, the figures for `CC(C)(C)c1cc(NC(=O)[C@H]2[C@H](C(=O)NCCCCN3CCCC3)[C@H]3C=C[C@@H]2C32CC2)no1` (racemic) [Example 145, (5R*)—N^5-(5-tert-Butyl-isoxazol-3-yl)-(6R*)—N^6-(4-pyrrolidin-1-yl-butyl)-(4S*,7R*)-[4,7-ethenylene-spiro[2.4]heptane]-5,6-dicarboxamide] were 5.44 and 6.19.
Taken in the same sequence, the figures for `Cc1nsc2ccc(NC(=O)[C@H]3[C@H](C(=O)NCCCCN4CCCC4)[C@H]4C=C[C@@H]3C43CC3)cc12` (racemic) [Example 146, (5R*)—N^5-(3-Methyl-benzo[d]isothiazol-5-yl)-(6R*)—N^6-(4-pyrrolidin-1-yl-butyl)-(4S*,7R*)-[4,7-ethenylene-spiro[2.4]heptane]-5,6-dicarboxamide] were 5.35 and 6.47.
In the same order, the values of `O=C(NCCCCN1CCCC1)[C@H]1[C@H](C(=O)Nc2ccc3[nH]ccc3c2)[C@@H]2C=C[C@H]1C21CC1` (racemic) [Example 147, (5R*)—N^5-(1H-Indol-5-yl)-(6R*)—N^6-(4-pyrrolidin-1-yl-butyl)-(4S*,7R*)-[4,7-ethenylene-spiro[2.4]heptane]-5,6-dicarboxamide] are 5.13 and 6.08.
As for `O=C(NCCCCN1CCCC1)[C@H]1[C@H](C(=O)Nc2nc3ccc(F)cc3s2)[C@@H]2C=C[C@H]1C21CC1` (racemic) [Example 148, (5R*)—N^5-(6-Fluoro-benzothiazol-2-yl)-(6R*)—N^6-(4-pyrrolidin-1-yl-butyl)-(4S*,7R*)-[4,7-ethenylene-spiro[2.4]heptane]-5,6-dicarboxamide], the results for the pEC50 on human ALX receptor and at human FPRL2 were 5.12 and 6.65, respectively.
In the same order, the values of `CCC(CC)CNC(=O)[C@H]1[C@H](C(=O)NCCCCN2CCCC2)[C@H]2C=C[C@@H]1C21CC1` (racemic) [Example 149, (5R*)—N^5-(2-Ethyl-butyl)-(6R*)—N^6-(4-pyrrolidin-1-yl-butyl)-(4S*,7R*)-[4,7-ethenylene-spiro[2.4]heptane]-5,6-dicarboxamide] are 5.09 and 6.16.
For the molecule `O=C(NCCCCN1CCCC1)[C@H]1[C@H](C(=O)Nc2nc(-c3ccc(Cl)cc3)cs2)[C@@H]2C=C[C@H]1C21CC1` (racemic) [Example 150, (5R*)—N^5-(4-(4-Chlorophenyl)-thiazol-2-yl)-(6R*)—N^6-(4-pyrrolidin-1-yl-butyl)-(4S*,7R*)-[4,7-ethenylene-spiro[2.4]heptane]-5,6-dicarboxamide], the values for the negative logarithm of the EC50 (pEC50) on human ALX receptor and at human FPRL2 were 5.07 and 6.96, respectively.
